Source: ChEMBL document CHEMBL1126365, “Mechanism-based inactivation of mandelate racemase by propargylglycolate” (Bioorg Med Chem Lett, 1992)

Experiments:
[1] = test system: Pseudomonas putida; test: Kinetic inactivation against mandelate racemase from Pseudomonas putida ATCC 12633
[2] = test system: Pseudomonas putida; test: Kinetic inactivation against mandelate racemase from Pseudomonas putida ATCC 12633 in a solution of D2O

K inact [1]: 0.28 min⁻¹
K inact [2]: 0.2 min⁻¹
Compound: O=C(O)[C@@H](O)c1ccccc1
